According to ChEMBL document CHEMBL1201862, “PubChem BioAssay data set” (2004):
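Cultured in 96-well plates, cells were exposed to test compound for 48 hours across five concentrations. At the GI50, growth is halved.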 Active and inactive are the calls of the source. No stated cut-off is given here; in the data, active = GI50 up to about 1.1 µM and inactive = higher.

Experiments:
Assay in all cases: DTP human tumour cell line panel, 48 h
M14 = system: M14
SF-539 = system: SF-539
MCF7 = system: MCF7
Malme-3M = system: Malme-3M
OVCAR-4 = system: OVCAR-4
NCI/ADR-RES = system: NCI/ADR-RES
TK-10 = system: TK-10
SN12C = system: SN12C
RPMI-8226 = system: RPMI-8226
PC-3 = system: PC-3
LOX IMVI = system: LOX IMVI
RXF 393 = system: RXF 393
HCC 2998 = system: HCC 2998
A498 = system: A498
DU-145 = system: DU-145
OVCAR-5 = system: OVCAR-5
SK-MEL-28 = system: SK-MEL-28
NCI-H522 = system: NCI-H522
SK-OV-3 = system: SK-OV-3
HOP-62 = system: HOP-62
HCT-15 = system: HCT-15
HT-29 = system: HT-29
EKVX = system: EKVX
UACC-62 = system: UACC-62
CCRF-CEM = system: CCRF-CEM
SNB-75 = system: SNB-75
U-251 = system: U-251
MDA-MB-231 = system: MDA-MB-231
K562 = system: K562
OVCAR-3 = system: OVCAR-3
SK-MEL-5 = system: SK-MEL-5
SNB-19 = system: SNB-19
ACHN = system: ACHN
SW-620 = system: SW-620
MOLT-4 = system: MOLT-4
SF-268 = system: SF-268
SK-MEL-2 = system: SK-MEL-2
T47D = system: T47D
SF-295 = system: SF-295
SR = system: SR
IGROV-1 = system: IGROV-1
UACC-257 = system: UACC-257
786-0 = system: 786-0
COLO 205 = system: COLO 205
HCT-116 = system: HCT-116
NCI-H226 = system: NCI-H226
OVCAR-8 = system: OVCAR-8
UO-31 = system: UO-31
A549 = system: A549
HOP-92 = system: HOP-92
MDA-MB-435 = system: MDA-MB-435
KM12 = system: KM12
NCI-H23 = system: NCI-H23
NCI-H460 = system: NCI-H460
MDA-N = system: MDA-N
HL-60 = system: HL-60
Hs-578T = system: Hs-578T

`c1ccc2c3nnc(c2c1)SCCCSc1nnc(c2ccccc12)SCCCS3` was tested, and the GI50 (M14) was 90.8 µM (inactive), the GI50 (SF-539) was 11 µM (inactive) and the GI50 (MCF7) was > 100 µM (inactive). The GI50 (Malme-3M) was 34.8 µM (inactive), the GI50 (OVCAR-4) was 23.4 µM (inactive) and the GI50 (NCI/ADR-RES) was 33.4 µM (inactive). The GI50 (TK-10) was 76.7 µM (inactive), the GI50 (SN12C) was > 100 µM (inactive) and the GI50 (RPMI-8226) was > 100 µM (inactive). For the same compound, the GI50 (PC-3) was 97.7 µM (inactive), the GI50 (LOX IMVI) was > 100 µM (inactive) and the GI50 (RXF 393) was 33.3 µM (inactive). The GI50 (HCC 2998) was > 100 µM (inactive), the GI50 (A498) was 61.1 µM (inactive) and the GI50 (DU-145) was 33.7 µM (inactive). The GI50 (OVCAR-5) was > 100 µM (inactive), the GI50 (SK-MEL-28) was 44.7 µM (inactive) and the GI50 (NCI-H522) was 42.5 µM (inactive). The GI50 (SK-OV-3) was > 100 µM (inactive), the GI50 (HOP-62) was 24.2 µM (inactive) and the GI50 (HCT-15) was > 100 µM. For the same compound, the GI50 (HT-29) was > 100 µM (inactive), the GI50 (EKVX) was > 100 µM (inactive) and the GI50 (UACC-62) was 31.7 µM (inactive). The GI50 (CCRF-CEM) was > 100 µM (inactive), the GI50 (SNB-75) was 25.2 µM (inactive) and the GI50 (U-251) was 76 µM (inactive). The GI50 (MDA-MB-231) was 17.2 µM (inactive), the GI50 (K562) was > 100 µM (inactive) and the GI50 (OVCAR-3) was 25.8 µM (inactive). The GI50 (SK-MEL-5) was 23 µM (inactive), the GI50 (SNB-19) was 28.8 µM (inactive) and the GI50 (ACHN) was 72.3 µM (inactive). The GI50 (SW-620) was > 100 µM (inactive), the GI50 (MOLT-4) was > 100 µM (inactive) and the GI50 (SF-268) was 18.9 µM (inactive). For the same compound, the GI50 (SK-MEL-2) was 40.1 µM (inactive), the GI50 (T47D) was > 100 µM (inactive) and the GI50 (SF-295) was 92.3 µM (inactive). The GI50 (SR) was 84.1 µM (inactive), the GI50 (IGROV-1) was 47.2 µM (inactive) and the GI50 (UACC-257) was > 100 µM (inactive). For the same compound, the GI50 (786-0) was 54.1 µM (inactive), the GI50 (COLO 205) was > 100 µM (inactive) and the GI50 (HCT-116) was > 100 µM (inactive). For the same compound, the GI50 (NCI-H226) was 24.3 µM (inactive), the GI50 (OVCAR-8) was 36.7 µM (inactive) and the GI50 (UO-31) was > 100 µM (inactive). For the same compound, the GI50 (A549) was 58.5 µM (inactive), the GI50 (HOP-92) was 32.9 µM (inactive) and the GI50 (MDA-MB-435) was > 100 µM (inactive). The GI50 (KM12) was > 100 µM (inactive), the GI50 (NCI-H23) was 71.1 µM (inactive) and the GI50 (NCI-H460) was 34.4 µM (inactive). The GI50 (MDA-N) was > 100 µM (inactive) and the GI50 (HL-60) was > 100 µM (inactive).
In the case of `Cn1c2c(c3ccccc31)CCN1C(=O)CN(C(=O)C3CCCCC3)CC21` (configuration not stated), the GI50 (M14) is reported as > 100 µM (inactive), the GI50 (SF-539) is reported as > 100 µM (inactive) and the GI50 (MCF7) is reported as > 100 µM (inactive). For the same compound, the GI50 (Malme-3M) was > 100 µM (inactive), the GI50 (OVCAR-4) was > 100 µM (inactive) and the GI50 (NCI/ADR-RES) was > 100 µM (inactive). For the same compound, the GI50 (TK-10) was > 100 µM (inactive), the GI50 (SN12C) was > 100 µM (inactive) and the GI50 (RPMI-8226) was > 100 µM (inactive). For the same compound, the GI50 (PC-3) was > 100 µM (inactive), the GI50 (LOX IMVI) was > 100 µM (inactive) and the GI50 (RXF 393) was > 100 µM (inactive). For the same compound, the GI50 (HCC 2998) was > 100 µM (inactive), the GI50 (DU-145) was > 100 µM (inactive) and the GI50 (OVCAR-5) was > 100 µM (inactive). For the same compound, the GI50 (SK-MEL-28) was > 100 µM (inactive), the GI50 (NCI-H522) was > 100 µM (inactive) and the GI50 (SK-OV-3) was > 100 µM (inactive). The GI50 (HOP-62) was > 100 µM (inactive), the GI50 (HCT-15) was > 100 µM and the GI50 (HT-29) was > 100 µM (inactive). The GI50 (EKVX) was > 100 µM (inactive), the GI50 (UACC-62) was > 100 µM (inactive) and the GI50 (CCRF-CEM) was > 100 µM (inactive). The GI50 (SNB-75) was > 100 µM (inactive), the GI50 (U-251) was > 100 µM (inactive) and the GI50 (MDA-MB-231) was > 100 µM (inactive). For the same compound, the GI50 (K562) was > 100 µM (inactive), the GI50 (OVCAR-3) was > 100 µM (inactive) and the GI50 (SK-MEL-5) was > 100 µM (inactive). For the same compound, the GI50 (SNB-19) was > 100 µM (inactive), the GI50 (ACHN) was > 100 µM (inactive) and the GI50 (SW-620) was > 100 µM (inactive). For the same compound, the GI50 (MOLT-4) was > 100 µM (inactive), the GI50 (Hs-578T) was > 100 µM (inactive) and the GI50 (SF-268) was > 100 µM (inactive). For the same compound, the GI50 (SK-MEL-2) was > 100 µM (inactive), the GI50 (T47D) was > 100 µM (inactive) and the GI50 (SF-295) was > 100 µM (inactive). For the same compound, the GI50 (SR) was > 100 µM (inactive), the GI50 (IGROV-1) was > 100 µM (inactive) and the GI50 (UACC-257) was > 100 µM (inactive). The GI50 (786-0) was > 100 µM (inactive), the GI50 (COLO 205) was > 100 µM (inactive) and the GI50 (HCT-116) was > 100 µM (inactive). For the same compound, the GI50 (NCI-H226) was > 100 µM (inactive), the GI50 (OVCAR-8) was > 100 µM (inactive) and the GI50 (UO-31) was > 100 µM (inactive). For the same compound, the GI50 (A549) was > 100 µM (inactive), the GI50 (HOP-92) was > 100 µM (inactive) and the GI50 (MDA-MB-435) was > 100 µM (inactive). For the same compound, the GI50 (KM12) was > 100 µM (inactive), the GI50 (NCI-H23) was > 100 µM (inactive) and the GI50 (NCI-H460) was > 100 µM (inactive). For the same compound, the GI50 (MDA-N) was > 100 µM (inactive) and the GI50 (HL-60) was > 100 µM (inactive).
